From ChEMBL document CHEMBL5729675, “Sulfonamide compound or salt thereof” (2023)

Target: Ribonucleotide reductase (Homo sapiens, UniProt P23921+Q7LG56)
Experiment: Human RNR Inhibition Effect: The inhibitory activity against the ribonucleotide reduction reaction (hereinafter referred to as RNR reaction) of the test compound was determined by measuring the formation of deoxycytidine diphosphate (hereinafter referred to as dCDP) from cytidine diphosphate (hereinafter referred to as CDP) by the following method.Human M1 subunit and human M2 subunit (mutant …

Ribonucleotide reductase, sequence (P23921 whole entry, looked up): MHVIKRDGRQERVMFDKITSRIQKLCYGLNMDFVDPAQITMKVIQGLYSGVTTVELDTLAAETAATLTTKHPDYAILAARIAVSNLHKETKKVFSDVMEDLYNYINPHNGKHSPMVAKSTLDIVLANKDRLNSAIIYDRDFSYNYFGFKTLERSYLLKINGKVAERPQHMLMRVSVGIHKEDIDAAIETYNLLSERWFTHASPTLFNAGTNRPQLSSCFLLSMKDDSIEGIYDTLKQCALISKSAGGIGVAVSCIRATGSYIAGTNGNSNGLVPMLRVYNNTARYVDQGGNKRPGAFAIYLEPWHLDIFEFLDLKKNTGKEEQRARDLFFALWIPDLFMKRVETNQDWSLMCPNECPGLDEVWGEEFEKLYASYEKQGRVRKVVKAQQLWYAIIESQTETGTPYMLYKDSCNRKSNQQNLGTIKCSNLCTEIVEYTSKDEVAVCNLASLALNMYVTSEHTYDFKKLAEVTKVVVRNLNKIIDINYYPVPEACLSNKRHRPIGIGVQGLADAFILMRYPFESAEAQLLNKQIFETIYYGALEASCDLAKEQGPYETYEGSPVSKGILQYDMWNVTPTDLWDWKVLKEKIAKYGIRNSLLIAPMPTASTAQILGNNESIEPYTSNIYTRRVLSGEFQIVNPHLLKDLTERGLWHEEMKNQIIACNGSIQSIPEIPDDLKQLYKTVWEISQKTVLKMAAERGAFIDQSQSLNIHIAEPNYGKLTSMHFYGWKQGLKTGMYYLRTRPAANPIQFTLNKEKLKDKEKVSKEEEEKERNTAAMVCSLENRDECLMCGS
Ribonucleotide reductase, sequence (Q7LG56 whole entry, looked up): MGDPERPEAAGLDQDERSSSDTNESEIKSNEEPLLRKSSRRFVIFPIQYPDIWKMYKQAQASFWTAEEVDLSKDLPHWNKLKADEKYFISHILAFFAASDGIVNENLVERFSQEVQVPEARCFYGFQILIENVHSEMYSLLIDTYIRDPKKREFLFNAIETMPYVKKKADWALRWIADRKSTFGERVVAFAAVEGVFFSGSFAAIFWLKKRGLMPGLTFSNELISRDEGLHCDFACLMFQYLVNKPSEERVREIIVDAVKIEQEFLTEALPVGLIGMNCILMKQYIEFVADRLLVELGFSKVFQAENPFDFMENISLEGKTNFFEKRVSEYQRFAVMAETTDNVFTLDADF

In order of falling IC50:
1. Cc1ccc(F)c([C@@H](C)[C@H](NS(=O)(=O)c2cc(F)c(Cl)cc2C(=O)O)c2n[nH]c(=O)o2)c1C  960 nM
2. Cc1ccc(F)c([C@@H](C)[C@H](NS(=O)(=O)c2ccc(Cl)cc2C(=O)NOCc2ccccc2)c2n[nH]c(=O)o2)c1C  910 nM
3. C[C@H](c1cccc2c1CCCC2)[C@H](NS(=O)(=O)c1ccc(N)cc1)c1n[nH]c(=O)o1  850 nM
4. C[C@H](c1cccc2ccccc12)[C@H](NS(=O)(=O)c1ccc(Cl)cc1Cl)c1n[nH]c(=O)o1  840 nM
5. Cc1ccc(F)c([C@@H](C)[C@H](NS(=O)(=O)c2ccc3[nH]c(=O)[nH]c3c2)c2n[nH]c(=O)o2)c1C  830 nM
6. COc1cc(Cl)ccc1S(=O)(=O)N[C@H](c1n[nH]c(=O)o1)[C@H](C)c1cccc2c1CC(C)C2 (some centres undefined)  700 nM
7. CC1CCc2cccc(C(C)[C@H](NS(=O)(=O)c3ccc(Br)cn3)c3n[nH]c(=O)o3)c21 (some centres undefined)  600 nM
8. COc1cc(Cl)ccc1S(=O)(=O)N[C@H](c1n[nH]c(=O)o1)[C@H](C)c1c(F)ccc(-c2ccc(N3CCCCC3)nc2)c1C  600 nM
9. C[C@H](c1cccc2c1CCC2)[C@H](NS(=O)(=O)c1ccc(F)c(C(C)(C)O)c1F)c1n[nH]c(=O)o1  550 nM
10. Cc1c(C(F)(F)F)ccc(F)c1[C@@H](C)[C@H](NS(=O)(=O)c1ccc(Cl)cc1C(N)=O)c1n[nH]c(=O)o1  550 nM
11. Cc1ccc(F)c([C@@H](C)[C@H](NS(=O)(=O)c2ccc(Cl)cc2C(N)=O)c2n[nH]c(=O)o2)c1Cl  500 nM
12. Cc1ccc(F)c([C@@H](C)[C@H](NS(=O)(=O)c2ncc(Cl)cc2C(=O)O)c2n[nH]c(=O)o2)c1C  500 nM
13. Cc1ccc(S(=O)(=O)N[C@H](c2n[nH]c(=O)o2)[C@H](C)c2c(F)ccc(C)c2C)cc1S(=O)(=O)N1CCCCC1  470 nM
14. COc1cc(Cl)ccc1S(=O)(=O)N[C@H](c1n[nH]c(=S)[nH]1)[C@H](C)c1c(F)ccc(C)c1C  460 nM
15. Cc1ccc(F)c([C@@H](C)[C@H](NS(=O)(=O)c2ccc(Cl)s2)c2n[nH]c(=O)o2)c1C  450 nM
16. Cc1cc(F)cc([C@@H](C)[C@H](NS(=O)(=O)c2ccc(Cl)cc2C(N)=O)c2n[nH]c(=O)o2)c1C  450 nM
17. Cc1ccc(F)c([C@@H](C)[C@H](NS(=O)(=O)c2ccc(Cl)cc2OCC(F)F)c2n[nH]c(=O)o2)c1C  440 nM
18. COc1c(S(=O)(=O)N[C@H](c2n[nH]c(=O)o2)[C@H](C)c2c(F)ccc(C)c2C)ccc(Cl)c1C(C)(C)OC(C)=O  430 nM
19. COc1cc(Cl)ccc1S(=O)(=O)N[C@H](c1n[nH]c(=O)o1)[C@H](C)c1c(F)ccc(-c2cncc(C(=O)N3CCOCC3)c2)c1C  420 nM
20. Cc1ccc(F)c([C@@H](C)[C@H](NS(=O)(=O)c2ccc3[nH]ncc3c2)c2n[nH]c(=O)o2)c1C  410 nM
21. CCc1cccc([C@@H](C)[C@H](NS(=O)(=O)c2ccc(Cl)cc2OC)c2n[nH]c(=O)o2)c1C  400 nM
22. CC(O)c1nc(S(=O)(=O)N[C@H](c2n[nH]c(=O)o2)[C@H](C)c2cccc3c2CCC3)ccc1Cl (some centres undefined)  400 nM
23. Cc1ccc(F)c([C@@H](C)[C@H](NS(=O)(=O)c2ccc(Cl)cc2C(C)O)c2n[nH]c(=O)o2)c1C (some centres undefined)  380 nM
24. Cc1ccc(F)c([C@@H](C)[C@H](NS(=O)(=O)c2ccc(Cl)cc2C#N)c2n[nH]c(=O)o2)c1C  360 nM
25. Cc1ccc(F)c([C@@H](C)[C@H](NS(=O)(=O)c2ccc3c(c2)C(=O)CCC3)c2n[nH]c(=O)o2)c1C  350 nM
26. COc1cc(Cl)ccc1S(=O)(=O)N[C@H](c1n[nH]c(=O)o1)[C@H](C)c1c(F)ccc(-c2ccc(Cl)nc2)c1C  340 nM
27. Cc1ccc(F)c([C@@H](C)[C@H](NS(=O)(=O)c2cccc3c2OCCO3)c2n[nH]c(=O)o2)c1C  330 nM
28. COC(=O)c1c(Cl)ccc(S(=O)(=O)N[C@H](c2n[nH]c(=S)o2)[C@H](C)c2cccc3c2CCC3)c1Cl  310 nM
29. COc1ccc(-c2ccc(F)c([C@@H](C)[C@H](NS(=O)(=O)c3ccc(Cl)cc3OC)c3n[nH]c(=O)o3)c2C)cc1  300 nM
30. Cc1ccc(F)c([C@@H](C)[C@H](NS(=O)(=O)c2cccc3c2OCCN3C(=O)C2CC2)c2n[nH]c(=O)o2)c1C  290 nM
31. COc1cc(Cl)ccc1S(=O)(=O)N[C@H](c1n[nH]c(=O)o1)[C@H](C)c1c(F)ccc(-c2cc[nH]n2)c1C  290 nM
32. Cc1ccc(F)c([C@@H](C)[C@H](NS(=O)(=O)c2ccc([N+](=O)[O-])cc2)c2n[nH]c(=O)o2)c1C  270 nM
33. Cc1ccc(F)c([C@@H](C)[C@H](NS(=O)(=O)c2ccc(Cl)cc2OC(F)F)c2n[nH]c(=O)o2)c1C  260 nM
34. COc1cc(N)ccc1S(=O)(=O)N[C@H](c1n[nH]c(=O)o1)[C@H](C)c1c(F)ccc2ccccc12  260 nM
35. Cc1ccc(F)c([C@@H](C)[C@H](NS(=O)(=O)c2ccccc2C(N)=O)c2n[nH]c(=O)o2)c1C  260 nM
36. CNC(=O)c1cc(Br)cnc1S(=O)(=O)N[C@H](c1n[nH]c(=O)o1)[C@H](C)c1c(F)ccc(C)c1C  250 nM
37. Cc1ccc(F)c([C@@H](C)[C@H](NS(=O)(=O)c2ccc(Cl)c3c2C(=O)CCC3)c2n[nH]c(=O)o2)c1C  240 nM
38. Cc1ccc(F)c([C@@H](C)[C@H](NS(=O)(=O)c2cccc3c2OC(C)(C)CC3=O)c2n[nH]c(=O)o2)c1C  240 nM
39. Cc1ccc(F)c([C@@H](C)[C@H](NS(=O)(=O)c2ccc(Cl)cc2-c2ccno2)c2n[nH]c(=O)o2)c1C  230 nM
40. Cc1ccc(F)c([C@@H](C)[C@H](NS(=O)(=O)c2c(F)cc(F)c3c2OCCC3O)c2n[nH]c(=O)o2)c1C (some centres undefined)  230 nM
41. Cc1ccc(F)c([C@@H](C)[C@H](NS(=O)(=O)c2ccc(Cl)cc2N)c2n[nH]c(=O)o2)c1C  230 nM
42. Cc1ccc(F)c([C@@H](C)[C@H](NS(=O)(=O)c2ccc3c(c2)N(C)CCC3)c2n[nH]c(=O)o2)c1C  220 nM
43. Cc1ccc(F)c([C@@H](C)[C@H](NS(=O)(=O)c2ccc(Cl)c(-c3cnn(C)c3)c2)c2n[nH]c(=O)o2)c1C  220 nM
44. CC(=O)OC(C)c1nc(S(=O)(=O)N[C@H](c2n[nH]c(=O)o2)[C@H](C)c2cccc3c2CCC3)ccc1Cl (some centres undefined)  210 nM
45. COc1c(S(=O)(=O)N[C@H](c2n[nH]c(=O)o2)[C@H](C)c2c(F)ccc(C)c2C)ncc(Cl)c1C(C)O (some centres undefined)  200 nM
46. Cc1ccc(F)c([C@@H](C)[C@H](NS(=O)(=O)c2ccc(Br)cc2C#N)c2n[nH]c(=O)o2)c1C  200 nM
47. Cc1ccc(F)c([C@@H](C)[C@H](NS(=O)(=O)c2ccc(Cl)c(C(=O)O)n2)c2n[nH]c(=O)o2)c1C  190 nM
48. Cc1ccc(F)c([C@@H](C)[C@H](NS(=O)(=O)c2ccc(Cl)nc2C(N)=O)c2n[nH]c(=O)o2)c1C  190 nM
49. Cc1ccc(F)c([C@@H](C)[C@H](NS(=O)(=O)c2ccc(Cl)c(C(=O)N3CCC4(CCC4)C3)n2)c2n[nH]c(=O)o2)c1C  180 nM
50. COc1c(S(=O)(=O)N[C@H](c2n[nH]c(=O)o2)[C@H](C)c2c(F)ccc(C)c2C)ccc(Cl)c1C(C)OC(C)=O (some centres undefined)  170 nM
51. COc1cc(Cl)cnc1S(=O)(=O)N[C@H](c1n[nH]c(=O)o1)[C@H](C)c1c(F)ccc(C)c1C  150 nM
52. Cc1ccc(F)c([C@@H](C)[C@H](NS(=O)(=O)c2ccc(Cl)c3c2OCCC3=O)c2n[nH]c(=O)o2)c1C  150 nM
53. Cc1ccc(F)c([C@@H](C)[C@H](NS(=O)(=O)c2ccc(Cl)c(C(=O)N3CCC(N)C3)n2)c2n[nH]c(=O)o2)c1C (some centres undefined)  150 nM
54. Cc1ccc(F)c([C@@H](C)[C@H](NS(=O)(=O)c2ccc(Cl)c3c2OCCN3CC(F)F)c2n[nH]c(=O)o2)c1C  140 nM
55. Cc1ccc(F)c([C@@H](C)[C@H](NS(=O)(=O)c2cnc(Cl)cc2C(N)=O)c2n[nH]c(=O)o2)c1C  130 nM
56. Cc1ccc(F)c([C@@H](C)[C@H](NS(=O)(=O)c2ccc(Cl)c3c2OCC(=O)N3CCO)c2n[nH]c(=O)o2)c1C  130 nM
57. Cc1ccc(F)c([C@@H](C)[C@H](NS(=O)(=O)c2ccc(Cl)c(C(=O)N3CCC4(COC4)C3)n2)c2n[nH]c(=O)o2)c1C  130 nM
58. Cc1ccc(F)c([C@@H](C)[C@H](NS(=O)(=O)c2ccc3c(c2)OCCO3)c2n[nH]c(=O)o2)c1C  130 nM
59. CCc1ccc(S(=O)(=O)N[C@H](c2n[nH]c(=O)o2)[C@H](C)c2c(F)ccc(C)c2C)c(C(N)=O)c1  130 nM
60. Cc1ccc(F)c([C@@H](C)[C@H](NS(=O)(=O)c2cc(F)c(Cl)cc2C(N)=O)c2n[nH]c(=O)o2)c1C  120 nM
61. Cc1ccc(F)c([C@@H](C)[C@H](NS(=O)(=O)c2cccc3c2OCCC3(O)C(F)(F)F)c2n[nH]c(=O)o2)c1C (some centres undefined)  120 nM
62. C[C@H](c1c(F)ccc2ccccc12)[C@H](NS(=O)(=O)c1ccc(Cl)cc1C(N)=O)c1n[nH]c(=O)o1  110 nM
63. CCc1ccc(F)c([C@@H](C)[C@H](NS(=O)(=O)c2ccc(Br)cc2C(N)=O)c2n[nH]c(=O)o2)c1C  100 nM
64. CC(=O)NC1CCOc2c(S(=O)(=O)N[C@H](c3n[nH]c(=O)o3)[C@H](C)c3c(F)ccc(C)c3C)ccc(Cl)c21 (some centres undefined)  100 nM
65. Cc1cc(S(=O)(=O)N[C@H](c2n[nH]c(=O)o2)[C@H](C)c2c(F)ccc(C)c2C)c(C(N)=O)cc1Cl  100 nM
66. Cc1c(Br)ccc(F)c1[C@@H](C)[C@H](NS(=O)(=O)c1ccc(Cl)c2c1OCCC2=O)c1n[nH]c(=O)o1  90 nM
67. Cc1ccc(F)c([C@@H](C)[C@H](NS(=O)(=O)c2ccc(Cl)c(C(=O)N3CCC4(CC3)COC4)n2)c2n[nH]c(=O)o2)c1C  80 nM
68. Cc1ccc(F)c([C@@H](C)[C@H](NS(=O)(=O)c2cc(C(C)(C)O)c(F)cc2C(N)=O)c2n[nH]c(=O)o2)c1C  80 nM
69. Cc1ccc(F)c([C@@H](C)[C@H](NS(=O)(=O)c2ccc(Cl)c(C(=O)N3C4CCC3COC4)n2)c2n[nH]c(=O)o2)c1C  70 nM
70. Cc1ccc(F)c([C@@H](C)[C@H](NS(=O)(=O)c2ccc(Cl)c(C(=O)N3CCOCC3)n2)c2n[nH]c(=O)o2)c1C  60 nM
71. Cc1c(Br)ccc(F)c1[C@@H](C)[C@H](NS(=O)(=O)c1ncc(Cl)cc1C(N)=O)c1n[nH]c(=O)o1  60 nM
72. CNC(=O)c1nc(S(=O)(=O)N[C@H](c2n[nH]c(=O)o2)[C@H](C)c2c(F)ccc(C)c2C)ccc1Cl  60 nM
73. Cc1ccc(F)c([C@@H](C)[C@H](NS(=O)(=O)c2ccc(Br)cc2C(N)=O)c2n[nH]c(=O)o2)c1C  60 nM
74. Cc1ccc(F)c([C@@H](C)[C@H](NS(=O)(=O)c2cc(C(C)(C)O)ccc2C(N)=O)c2n[nH]c(=O)o2)c1C  60 nM
